Measured values reported in patent US20170355705A1 (GlaxoSmithKline Intellectual Property (No.2) Limited, priority 2014, published 2017).

Target: T1, SIRT1 (Homo sapiens, UniProt Q96EB6)
T1 sequence (Q96EB6 1-747): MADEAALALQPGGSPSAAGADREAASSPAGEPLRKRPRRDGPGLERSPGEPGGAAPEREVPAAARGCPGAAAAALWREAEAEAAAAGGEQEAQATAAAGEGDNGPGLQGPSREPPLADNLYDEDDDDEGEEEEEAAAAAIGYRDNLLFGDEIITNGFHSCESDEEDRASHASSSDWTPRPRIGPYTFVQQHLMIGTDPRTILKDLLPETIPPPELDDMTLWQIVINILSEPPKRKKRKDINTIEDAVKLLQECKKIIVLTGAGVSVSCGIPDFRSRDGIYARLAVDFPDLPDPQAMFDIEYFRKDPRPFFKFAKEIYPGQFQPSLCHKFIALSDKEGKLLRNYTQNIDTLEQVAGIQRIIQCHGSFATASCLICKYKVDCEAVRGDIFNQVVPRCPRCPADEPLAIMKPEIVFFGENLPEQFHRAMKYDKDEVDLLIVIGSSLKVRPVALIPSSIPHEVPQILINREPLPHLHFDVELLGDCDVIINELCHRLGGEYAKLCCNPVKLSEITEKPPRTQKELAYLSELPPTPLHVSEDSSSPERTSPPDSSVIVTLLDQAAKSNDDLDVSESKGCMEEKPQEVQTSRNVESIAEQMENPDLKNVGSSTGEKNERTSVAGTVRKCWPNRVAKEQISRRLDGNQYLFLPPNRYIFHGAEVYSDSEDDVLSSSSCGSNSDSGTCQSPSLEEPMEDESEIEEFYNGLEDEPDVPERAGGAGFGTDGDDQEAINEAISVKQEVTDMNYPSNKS
Test: Trp mass spectrometry assay of SIRT1 activity (EC1.5, percent maximum activation)
Assay type: biochemical
Conditions: Trp mass spectrometry assay; for TRP Activity (EC1.5): EC1.5 = concentration giving 150% activation of SIRT1; for TRP MAX RESP (percent maximum fold activation): percent maximum activation of SIRT1
Outline: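 MS readout: O-acetyl-ADP-ribose (or deacetylated peptide) formed by His-tagged SIRT1 (BL21(DE3)-expressed) on 5TMR-Trp p53-based peptide, 25 min, formic acid stop. EC1.5 = concentration raising activity 50% over no-compound control; % max activation vs control = 100%.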

Row | SMILES | TRP Activity (EC1.5) | TRP MAX RESP (percent maximum fold activation)
1 | O=C(Nc1ccnc(OC[C@H](O)CO)c1)N1c2nc(-c3cccc(C(F)(F)F)c3)ccc2N2CC[C@H]1C2 [Example 132, (4S)-N-(2-((R)-2,3-dihydroxypropoxy)pyridin-4-yl)-7-(3-(trifluoromethyl)phenyl)-3,4-dihydro-1,4-methanopyrido[2,3-b][1,4]diazepine-5(2H)-carboxamide] | A (EC1.5<1 μM) | A (Fold activation ≧150%)
2 | Cc1cc(-c2ccc3c(n2)N(C(=O)Nc2ccc4[nH]ncc4n2)[C@H]2CCN3C2)ccn1 [Example 133, (4S)-7-(2-methylpyridin-4-yl)-N-(1H-pyrazolo[4,3-b]pyridin-5-yl)-3,4-dihydro-1,4-methanopyrido[2,3-b][1,4]diazepine-5(2H)-carboxamide] | A (EC1.5<1 μM) | A (Fold activation ≧150%)
3 | O=C(Nc1ccnc(OC[C@@H](O)CO)n1)N1c2nc(-c3cccc(C(F)(F)F)c3)ccc2N2CC[C@H]1C2 [Example 134, (4S)-N-(2-((S)-2,3-dihydroxypropoxy)pyrimidin-4-yl)-7-(3-(trifluoromethyl)phenyl)-3,4-dihydro-1,4-methanopyrido[2,3-b][1,4]diazepine-5(2H)-carboxamide] | A (EC1.5<1 μM) | A (Fold activation ≧150%)
4 | Cc1cc(-c2ccc3c(n2)N(C(=O)Nc2cn(C)nn2)[C@H]2CCN3C2)ccn1 [Example 138, (4S)-N-(1-methyl-1H-1,2,3-triazol-4-yl)-7-(2-methylpyridin-4-yl)-3,4-dihydro-1,4-methanopyrido[2,3-b][1,4]diazepine-5(2H)-carboxamide] | B (EC1.5 1-25 μM) | A (Fold activation ≧150%)
5 | Cc1cc(-c2ccc3c(n2)N(C(=O)Nc2ncn(C)n2)[C@H]2CCN3C2)ccn1 [Example 143, (4S)-N-(1-methyl-1H-1,2,4-triazol-3-yl)-7-(2-methylpyridin-4-yl)-3,4-dihydro-1,4-methanopyrido[2,3-b][1,4]diazepine-5(2H)-carboxamide] | B (EC1.5 1-25 μM) | A (Fold activation ≧150%)
6 | Cc1cc(-c2ccc3c(n2)N(C(=O)Nc2nccc4[nH]cnc24)[C@H]2CCN3C2)ccn1 [Example 145, (4S)-N-(1H-imidazo[4,5-c]pyridin-4-yl)-7-(2-methylpyridin-4-yl)-3,4-dihydro-1,4-methanopyrido[2,3-b][1,4]diazepine-5(2H)-carboxamide] | B (EC1.5 1-25 μM) | A (Fold activation ≧150%)
7 | Cc1cc(-c2ccc3c(n2)N(C(=O)Nc2cnc4c(c2)OCCO4)[C@H]2CCN3C2)ccn1 [Example 148, (4S)-N-(2,3-dihydro-[1,4]dioxino[2,3-b]pyridin-7-yl)-7-(2-methylpyridin-4-yl)-3,4-dihydro-1,4-methanopyrido[2,3-b][1,4]diazepine-5(2H)-carboxamide] |  | A (Fold activation ≧150%)
8 | Cc1cc(-c2ccc3c(n2)N(C(=O)N2CCOCC2)[C@H]2CCN3C2)ccn1 [Example 150, ((4S)-7-(2-methylpyridin-4-yl)-3,4-dihydro-1,4-methanopyrido[2,3-b][1,4]diazepin-5(2H)-yl)(morpholino)methanone] | C (EC1.5>25 μM) | B (Fold Activation <150%)
9 | Cc1cc(-c2ccc3c(n2)N(C(=O)N2CCCCC2)[C@H]2CCN3C2)ccn1 [Example 151, ((4S)-7-(2-methylpyridin-4-yl)-3,4-dihydro-1,4-methanopyrido[2,3-b][1,4]diazepin-5(2H)-yl)(piperidin-1-yl)methanone] | C (EC1.5>25 μM) | B (Fold Activation <150%)

Second part, the molecule after the results:

Row | TRP Activity (EC1.5) | TRP MAX RESP (percent maximum fold activation) | SMILES
10 |  | A (Fold activation ≧150%) | Cc1cc(-c2ccc3c(n2)N(C(=O)Nc2cnccn2)[C@H]2CCN3C2)cc(C)n1 [Example 135, (4S)-7-(2,6-dimethylpyridin-4-yl)-N-(pyrazin-2-yl)-3,4-dihydro-1,4-methanopyrido[2,3-b][1,4]diazepine-5(2H)-carboxamide]
11 | A (EC1.5<1 μM) | A (Fold activation ≧150%) | O=C(Nc1cnccn1)N1c2nc(-c3ccnc(C4CC4)c3)ccc2N2CC[C@H]1C2 [Example 136, (4S)-7-(2-cyclopropylpyridin-4-yl)-N-(pyrazin-2-yl)-3,4-dihydro-1,4-methanopyrido[2,3-b][1,4]diazepine-5(2H)-carboxamide]
12 | A (EC1.5<1 μM) | A (Fold activation ≧150%) | CC(C)c1cc(-c2ccc3c(n2)N(C(=O)Nc2cnccn2)[C@H]2CCN3C2)ccn1 [Example 137, (4S)-7-(2-isopropylpyridin-4-yl)-N-(pyrazin-2-yl)-3,4-dihydro-1,4-methanopyrido[2,3-b][1,4]diazepine-5(2H)-carboxamide]
13 | A (EC1.5<1 μM) | A (Fold activation ≧150%) | CCc1cc(-c2ccc3c(n2)N(C(=O)Nc2cnccn2)[C@H]2CCN3C2)ccn1 [Example 139, (4S)-7-(2-ethylpyridin-4-yl)-N-(pyrazin-2-yl)-3,4-dihydro-1,4-methanopyrido[2,3-b][1,4]diazepine-5(2H)-carboxamide]
14 | B (EC1.5 1-25 μM) | A (Fold activation ≧150%) | CCOc1cc(-c2ccc3c(n2)N(C(=O)Nc2cnccn2)[C@H]2CCN3C2)ccn1 [Example 140, (4S)-7-(2-ethoxypyridin-4-yl)-N-(pyrazin-2-yl)-3,4-dihydro-1,4-methanopyrido[2,3-b][1,4]diazepine-5(2H)-carboxamide]
15 | B (EC1.5 1-25 μM) | A (Fold activation ≧150%) | COc1cc(-c2ccc3c(n2)N(C(=O)Nc2cnccn2)[C@H]2CCN3C2)ccn1 [Example 141, (4S)-7-(2-methoxypyridin-4-yl)-N-(pyrazin-2-yl)-3,4-dihydro-1,4-methanopyrido[2,3-b][1,4]diazepine-5(2H)-carboxamide]
16 | B (EC1.5 1-25 μM) | A (Fold activation ≧150%) | COc1cc(-c2ccc3c(n2)N(C(=O)Nc2cnccn2)[C@H]2CCN3C2)cc(C)n1 [Example 142, (4S)-7-(2-methoxy-6-methylpyridin-4-yl)-N-(pyrazin-2-yl)-3,4-dihydro-1,4-methanopyrido[2,3-b][1,4]diazepine-5(2H)-carboxamide]
17 | B (EC1.5 1-25 μM) | A (Fold activation ≧150%) | CNc1cc(-c2ccc3c(n2)N(C(=O)Nc2cnccn2)[C@H]2CCN3C2)ccn1 [Example 144, (4S)-7-(2-(methylamino)pyridin-4-yl)-N-(pyrazin-2-yl)-3,4-dihydro-1,4-methanopyrido[2,3-b][1,4]diazepine-5(2H)-carboxamide]
18 | B (EC1.5 1-25 μM) | A (Fold activation ≧150%) | O=C(Nc1cnccn1)N1c2nc(-c3ccc(CO)nc3)ccc2N2CC[C@H]1C2 [Example 147, (4S)-7-(6-(hydroxymethyl)pyridin-3-yl)-N-(pyrazin-2-yl)-3,4-dihydro-1,4-methanopyrido[2,3-b][1,4]diazepine-5(2H)-carboxamide]
